Test results taken from ChEMBL document CHEMBL4823282, “Novel Broad-Spectrum Antimicrobial Peptide Derived from Anoplin and Its Activity on Bacterial Pneumonia in Mice” (J Med Chem, 2021).
≈ marks a conversion by molar mass, not a printed value. Calls of active or inactive are those of the source. The calls are words filed in the database; no cut-off is given here. Where a SMILES comes first, the peptide text is derived from it. Bridges are numbered along the chain shown (N, C = ends). [ ]: non-standard residue; d: D form. The star is where a group is joined. X1 = CC[C@H](C)CCCCC(=O)*; Dab = NCC[C@H](N)C(=O)O

What was measured:
[1] = test system: Staphylococcus aureus; test: Antibacterial activity against Staphylococcus aureus ATCC 25923 incubated for 18 hrs by CLSI based broth dilution method; format: functional
[2] = test system: Bacillus subtilis; test: Antibacterial activity against Bacillus subtilis ATCC 23857 incubated for 18 hrs by CLSI based broth dilution method; format: functional
[3] = test system: Enterococcus faecalis; test: Antibacterial activity against Enterococcus faecalis ATCC 29212 incubated for 18 hrs by CLSI based broth dilution method; format: functional
[4] = test system: Staphylococcus epidermidis; test: Antibacterial activity against Staphylococcus epidermidis ATCC 12228 incubated for 18 hrs by CLSI based broth dilution method; format: functional
[5] = test system: Escherichia coli; test: Antibacterial activity against Escherichia coli ATCC 25922 incubated for 18 hrs by CLSI based broth dilution method; format: functional
[6] = test system: Pseudomonas aeruginosa; test: Antibacterial activity against Pseudomonas aeruginosa ATCC 27853 incubated for 18 hrs by CLSI based broth dilution method; format: functional
[7] = test system: Klebsiella pneumoniae; test: Antibacterial activity against Klebsiella pneumoniae ATCC 700603 incubated for 18 hrs by CLSI based broth dilution method; format: functional
[8] = test system: Acinetobacter baumannii; test: Antibacterial activity against Acinetobacter baumannii ATCC 19606 incubated for 18 hrs by CLSI based broth dilution method; format: functional; settings: ATCC 19606 = CIP 70.34 = JCM 6841
[9] = test system: Erythrocyte; test: Hemolytic activity in BALB/C mouse erythrocytes incubated for 1 hr by absorbance method; format: ADME, cell-based
[10] = Cytotoxicity against human glomerular mesangial cells incubated for 12 hrs by MTT assay; format: cell-based; settings: Glomerular mesangial cell
[11] = test system: Cell membrane; test: Disruption of membrane integrity in Staphylococcus aureus ATCC 25923 assessed as membrane shrinking at 1 times MIC measured within 0.5 hrs by scanning electron microscopy; format: subcellular
[12] = test system: Pseudomonas aeruginosa; test: Antibacterial activity against gentamicin-resistant Pseudomonas aeruginosa ATCC 27853 incubated for 18 hrs by CLSI based broth dilution method; format: functional
[13] = test system: Bacteria; test: Antibacterial activity against bacteria incubated for 18 hrs by CLSI based broth dilution method; format: functional
[14] = test system: Fungi; test: Antibacterial activity against fungi incubated for 18 hrs by CLSI based broth dilution method; format: functional
[15] = Selectivity ratio of MHC10 for BALB/C mouse erythrocytes to MIC for bacteria; format: toxicity
[16] = Selectivity ratio of MHC10 for BALB/C mouse erythrocytes to MIC for fungi; format: toxicity
[17] = test system: Bacteria; test: Antibacterial activity against Gram-positive bacteria incubated for 18 hrs by CLSI based broth dilution method; format: functional
[18] = Selectivity ratio of MHC10 for BALB/C mouse erythrocytes to MIC for gram positive bacteria; format: toxicity
[19] = test system: Bacteria; test: Antibacterial activity against Gram-negative bacteria incubated for 18 hrs by CLSI based broth dilution method; format: functional
[20] = Selectivity ratio of MHC10 for BALB/C mouse erythrocytes to MIC for gram-negative bacteria; format: toxicity
[21] = test system: Staphylococcus aureus; test: Bactericidal activity against Staphylococcus aureus ATCC 25923 at 2MIC by time-kill assay; format: functional, organism-based; settings: time 24.0 hrs, TDE = time-dependent effect
[22] = test system: Klebsiella pneumoniae; test: Bactericidal activity against Klebsiella pneumoniae 700603 at 2MIC by time-kill assay relative to control; format: functional
[23] = test system: Cell membrane; test: Induction of inner membrane permeabilization in Klebsiella pneumoniae ATCC 700603 at 0.5 to 4MIC using ONPG as substrate by spectroscopic method; format: subcellular; settings: Klebsiella pneumoniae 700603, 0.5 to 4M
[24] = test system: Escherichia coli; test: Antibiofilm activity against Escherichia coli ATCC 25922 at 4 times MIC incubated for 24 hrs by crystal violet staining based assay; format: functional, organism-based
[25] = test system: Staphylococcus aureus; test: Antibacterial activity against Staphylococcus aureus ATCC 25923 at 0.5 to 1 times MIC incubated for 24 hrs by crystal violet staining based assay; format: functional, organism-based
[26] = test system: Lipopolysaccharide (LPS); test: Binding affinity to LPS (unknown origin) assessed as bacterial killing at 2 times MIC preincubated for 1 hr followed by Escherichia coli ATCC 25922 addition and measured after 2 hrs by absorbance method; settings: time 3.0 hrs
[27] = test system: Staphylococcus aureus; test: Disruption of membrane integrity in Staphylococcus aureus ATCC 25923 assessed as membrane blebbing at 1 times MIC measured within 0.5 hrs by scanning electron microscopy; format: functional, organism-based
[28] = test system: Cell membrane; test: Disruption of membrane integrity in Staphylococcus aureus ATCC 25923 assessed as bacterial death at 1 times MIC measured within 0.5 hrs by scanning electron microscopy; format: subcellular
[29] = test system: Cell membrane; test: Disruption of membrane integrity in Klebsiella pneumoniae ATCC 700603 assessed as membrane swelling at 1 times MIC incubated for 0.5 to 2 hrs by scanning electron microscopy; format: subcellular; settings: Klebsiella pneumoniae 700603, time 0.5-2 hrs
[30] = test system: Cell membrane; test: Disruption of membrane integrity in Klebsiella pneumoniae ATCC 700603 assessed as bacterial death at 1 times MIC incubated for 0.5 to 2 hrs by scanning electron microscopy; format: subcellular; settings: Klebsiella pneumoniae 700603, time 0.5-2 hrs
[31] = test system: Staphylococcus aureus; test: Disruption of bacterial cell membrane in Staphylococcus aureus ATCC 25923 assessed as increase in PI uptake incubated for 30 to 120 mins by FACS flow cytometry; format: functional, organism-based; settings: time 30-120 min
[32] = test system: Pseudomonas aeruginosa; test: Synergistic antibacterial activity against Pseudomonas aeruginosa ATCC 27853 at 2 times MIC incubated for 18 to 24 hrs in presence of 2 times MIC of rifampicin by broth microdilution assay based checkerboard assay; format: functional; settings: time 18-24 hrs
[33] = test system: Escherichia coli; test: Synergistic antibacterial activity against Escherichia coli ATCC 25922 at 2 times MIC incubated for 18 to 24 hrs in presence of 2 times MIC of rifampicin by broth microdilution assay based checkerboard assay; format: functional; settings: time 18-24 hrs
[34] = test system: Klebsiella pneumoniae; test: Synergistic antibacterial activity against Klebsiella pneumoniae ATCC 700603 at 2 times MIC incubated for 18 to 24 hrs in presence of 2 times MIC of rifampicin by broth microdilution assay based checkerboard assay; format: functional; settings: time 18-24 hrs
[35] = test system: Klebsiella pneumoniae; test: Synergistic antibacterial activity against Klebsiella pneumoniae ATCC 700603 at 2 times MIC incubated for 18 to 24 hrs in presence of 2 times MIC of gentamycin by broth microdilution assay based checkerboard assay; format: functional; settings: time 18-24 hrs
[36] = test system: Pseudomonas aeruginosa; test: Antibacterial activity against rifampin-resistant Pseudomonas aeruginosa ATCC 27853 incubated for 18 hrs by CLSI based broth dilution method; format: functional
[37] = test system: Klebsiella pneumoniae; test: Antibacterial activity against Klebsiella pneumoniae ATCC 700603 infected in BALB/C mouse assessed as reduction in bacterial load in lung at 5 mg/kg, ip measured within 24 hrs by agar plate counting method (reference value: 2.77 x 10^7 CFU/mg); format: functional
[38] = test system: Klebsiella pneumoniae; test: Antibacterial activity against Klebsiella pneumoniae ATCC 700603 infected in BALB/C mouse assessed as reduction in alveolar shrinkage at 5 mg/kg, ip by hematoxylin and eosin staining based assay; format: functional, organism-based
[39] = Toxicity in ip dosed BALB/C mouse measured within 14 days by Karber-method; format: organism-based; settings: in vivo, time 14 day
[40] = Toxicity in BALB/C mouse assessed as mouse death at 15 to 25 mg/kg, ip measured within 2 days; format: organism-based; settings: in vivo, 48 h, dose 15-25 mg/kg, time 2 day
[41] = test system: Cell membrane; test: Induction of outer membrane permeabilization in Klebsiella pneumoniae ATCC 700603 measured within 1 mins by N-phenylnaphthylamine dye based fluorescent method; format: subcellular; settings: Klebsiella pneumoniae 700603
[42] = Toxicity in BALB/C mouse assessed as induction of tissue hemorrhage at 19 mg/kg, ip administered as single dose by hematoxylin and eosin staining based assay; format: organism-based; settings: in vivo
[43] = 2M, TDE = time-dependent effect

SMILES | MIC [1] [µM] | MIC [2] [µM] | MIC [3] [µM] | MIC [4] [µM] | MIC [5] [µM] | MIC [6] [µM] | MIC [7] [µM] | MIC [8] [µM] | MHC10 [9] | IC50 [10] [µM] | Activity [11] | MIC [12] [µM] | MIC [13] [µM] | MIC [14] [µM] | selectivity ratio [15] | selectivity ratio [16] | MIC [17] [µM] | selectivity ratio at 18 h [18] | MIC [19] [µM] | selectivity ratio [20] | also measured
CC[C@H](C)CCCCC(=O)N[C@@H](CCN)C(=O)N[C@H](C(=O)N[C@@H](CCN)C(=O)N[C@H]1CCNC(=O)[C@H]([C@@H](C)O)NC(=O)[C@H](CCN)NC(=O)[C@H](CCN)NC(=O)[C@H](CC(C)C)NC(=O)[C@@H](Cc2ccccc2)NC(=O)[C@H](CCN)NC1=O)[C@@H](C)O (X1-[Dab]T[Dab][Dab][Dab][dF]L[Dab][Dab]T; lactam 4-C) | 16 (≈ 19.3 µg/mL) | 8 (≈ 9.63 µg/mL) | 128 (≈ 154 µg/mL) | 32 (≈ 38.5 µg/mL) | 4 (≈ 4.81 µg/mL) | 4 (≈ 4.81 µg/mL) | 4 (≈ 4.81 µg/mL) | 32 (≈ 38.5 µg/mL) | >= 512 uM | ≥ 512 | inactive | 2 (≈ 2.41 µg/mL) | 12.3 (≈ 14.9 µg/mL) | 12.3 (≈ 14.9 µg/mL) | 4150 | 4150 | 26.9 (≈ 32.4 µg/mL) | 19 | 5.66 (≈ 6.81 µg/mL) | 90.5 | Activity [21]: Tde; Activity [22, 43]: Tde; Activity [23]: inactive; Activity [24]: Active; Activity [25]: Active; Activity [26]: Dose-Dependent Effect; Activity [27]: inactive; Activity [28]: inactive; Activity [29]: Active; Activity [30]: Active; Activity [31]: inactive; FIC [32]: 0.3125; FIC [33]: 0.125; FIC [34]: 0.3125; FIC [35]: 0.5; MIC [36]: 2 µM (≈ 2.41 µg/mL); Activity [37]: 3.21 10^4CFU/ml; Activity [38]: inactive; LD50 at 336 h [39]: 16.4 mg/kg; Activity [40]: Toxic
NCCCC[C@H](NC(=O)[C@H](CCCCN)NC(=O)[C@H](Cc1c[nH]c2ccccc12)NC(=O)[C@H](CCCCN)NC(=O)[C@H](CCCCN)NC(=O)[C@H](Cc1c[nH]c2ccccc12)NC(=O)[C@H](Cc1c[nH]c2ccccc12)NC(=O)[C@@H](N)CCCCN)C(=O)N[C@@H](Cc1c[nH]c2ccccc12)C(=O)N[C@@H](Cc1c[nH]c2ccccc12)C(N)=O (H-KWWKKWKKWW-NH2) | 4 (≈ 6.36 µg/mL) | 4 (≈ 6.36 µg/mL) | 8 (≈ 12.7 µg/mL) | 4 (≈ 6.36 µg/mL) | 4 (≈ 6.36 µg/mL) | 4 (≈ 6.36 µg/mL) | 8 (≈ 12.7 µg/mL) | 8 (≈ 12.7 µg/mL) | 134.38 µM | 40.2 | Active | 2 (≈ 3.18 µg/mL) | 4.76 (≈ 7.56 µg/mL) | 4.76 (≈ 7.56 µg/mL) | 28.2 | 28.2 | 4.76 (≈ 7.56 µg/mL) | 28.2 | 4.76 (≈ 7.56 µg/mL) | 28.2 | Activity [21]: Tde; Activity [22]: 100%; Activity [22, 43]: Tde; Activity [41]: Dose-Dependent Effect; Activity [23]: inactive; Activity [25]: Active; Activity [26]: Dose-Dependent Effect; Activity [27]: Active; Activity [28]: Active; Activity [30]: Active; Activity [31]: Active; FIC [32]: 0.5625; FIC [33]: 0.75; FIC [34]: 0.3125; FIC [35]: 0.5625; MIC [36]: 2 µM (≈ 3.18 µg/mL); Activity [37]: 4.12 10^4CFU/mg; LD50 at 336 h [39]: 66.5 mg/kg; Activity [40]: Toxic; Activity [42]: Toxic
